Results published in patent publication US9028879B2, “Chromium complexes as enhancers of brain glucose transporters” (JDS Therapeutics, LLC, priority 2009, dated 2015).
Marks after values point to notes of the source that are not given here.

Experiments:
[1] = Serum and brain chromium levels in high fat diet rats
From the text: (§1) Briefly, insulin resistance and hyperglycemia were induced in male Wistar rats by feeding a high fat diet (HFD, 40% of calories as fat). A healthy control group received a standard diet (12% of calories as fat). Rats were fed their diets throughout the 12 week study.
(§2) Rats (10/group) were divided into groups: healthy control (Control), HFD, and HFD+CrHis. Chromium (Cr) treated rats were fed CrHis (110 mcg/kg body wt/d). Cr treatment started at the beginning of the study and was continued for 12 weeks. […] Body weight, serum chromium levels, and blood glucose levels were also measured.

[2] = tested on: subject having GLUT1 deficiency syndrome; assay: Example 3: treatment of subject with GLUT1 deficiency syndrome; format: in vivo; conditions: 50 μg to 5000 μg/day, orally, after a period of time
From the text: A subject is identified as having GLUT1 deficiency syndrome. The subject presents with one or more symptoms associated with GLUT1 deficiency syndrome such as the presence of a SLC2A1 mutation, neurological problems associated with GLUT1 deficiency such as stiffness caused by abnormal tensing of the muscles (spasticity), difficulty in coordinating movements (ataxia), and speech difficulties (dysarthria). The subject can experience episodes of confusion, lack of energy (lethargy), headaches, muscle twitches (myoclonus), or involuntary irregular eye movements, particularly before meals.
The subject is administered between 50 μg and 5000 μg chromium histidinate, chromium picolinate, or chromium histidinate/chromium picolinate combination complex/day. The chromium histidinate is administered orally.

[3] = Body weight and blood glucose in high fat diet rats; format: in vivo, male Wistar rats
From the text: as §1, §2

[4] = tested on: subject having Alzheimer's disease; assay: Example 5: treatment of subject with Alzheimer's disease with standard therapeutics; format: in vivo; conditions: 50 μg to 5000 μg chromium orally with standard therapeutics, over a period of five days
[5] = reported (Kaats 1998; Cefalu 1999); cited from earlier work
[6] = tested on: subject having Parkinson's disease; assay: Example 6: treatment of subject with Parkinson's disease; format: in vivo; conditions: 50 μg to 5000 μg, orally, over time
Description: A subject is identified as having Parkinson's disease by conventional methods.
The subject is administered between 50 μg and 5000 μg chromium polyhistidinate. The chromium is administered orally.

[7] = HFD rats, CrHis 110 mcg/kg body wt/d, 12 weeks, mean ± s.e.m.
[8] = compared to the high fat diet alone

With chromium histidinate [CrHis] the “Brain Chromium” value ([1]; HFD rats, CrHis 110 mcg/kg body wt/d, 12 weeks, brain tissue homogenates, mean ± s.e.m.) was 17.7 ± 0.2^c ng/g, the “Serum Chromium” value [1, 7] was 22.0 ± 0.6^c ng/g and the “brain chromium levels, change” value [1, 8] was “significantly increased”. The “serum chromium levels, change” value [1, 8] was “significantly increased”, the “symptoms of GLUT1 deficiency” value [2] was “reduction in one or more of the symptoms” and the “Blood Glucose” value [3, 7] was 116.4 ± 2.1^c mg/dL. For the same substance, the “Body Weight” value [3, 7] was 315.1 ± 1.9^c g, the “blood glucose levels, change” value [3, 8] was “decreased” and the “body weight, change” value [3, 8] was “decreased”.

In the case of chromium picolinate, the “subject's condition, as assessed by one or more symptoms of the disease” value [4] is given as “does not worsen or improves”, the “symptoms of GLUT1 deficiency” value [2] is given as “reduction in one or more of the symptoms” and the “weight loss and changes in body composition” value [5] is given as “modest weight loss”.

For chromium polyhistidinate, the “subject's condition, as assessed by one or more symptoms of the disease” value [6] was “does not worsen or improves”.
